Patent US10925851B2 (Regents of the University of Minnesota, priority 2018, dated 2021)
Several values for one entry are separate records, joined by “and”; a condition that tells them apart may be missing. Equal values may be shown once.

What was measured:
mice = assay: Formalin test (persistent pain); format: in vivo, mouse
Experimental: The formalin test is another variant model for analyzing pain-relieving properties of test compounds in pain produced by inflammation or by injury to peripheral tissue. It is divergent from the acetic acid writhing assay in producing a biphasic response. These pharmacologically distinct phases are generally observed from 1 to 10 minutes, and 15 to 60 minutes post injection. While phase-I is caused by a rapid relay response in pain fibers, sensitization due to peripheral inflammation results in phase-II response in this model.
Mice were injected with 20 μl of 2% buffered formalin solution into the intraplantar region of hind paw of mice and the total time spent in licking and biting of the formalin-treated paw by the animals over the course of 30 min (phase I, acute pain behavior, 0-5 min; phase II, chronic pain behavior, 15-30 min) was recorded. Test compounds were injected 15 min prior to formalin administration. The pain response time (licking time) was recorded for every 5-min period during the 30-min recording for each mouse. The test compounds were dissolved in 50% saline in DMSO solution and delivered systemically

Neprilysin (NEP) = target: T1, Neprilysin (NEP) (Homo sapiens, UniProt P08473); assay: Neprilysin inhibition assay (Mca-[…](Dpn) FRET substrate); format: biochemical
T1 construct: purchased Enzo Life Sciences
T1 sequence (P08473 whole entry, species assumed): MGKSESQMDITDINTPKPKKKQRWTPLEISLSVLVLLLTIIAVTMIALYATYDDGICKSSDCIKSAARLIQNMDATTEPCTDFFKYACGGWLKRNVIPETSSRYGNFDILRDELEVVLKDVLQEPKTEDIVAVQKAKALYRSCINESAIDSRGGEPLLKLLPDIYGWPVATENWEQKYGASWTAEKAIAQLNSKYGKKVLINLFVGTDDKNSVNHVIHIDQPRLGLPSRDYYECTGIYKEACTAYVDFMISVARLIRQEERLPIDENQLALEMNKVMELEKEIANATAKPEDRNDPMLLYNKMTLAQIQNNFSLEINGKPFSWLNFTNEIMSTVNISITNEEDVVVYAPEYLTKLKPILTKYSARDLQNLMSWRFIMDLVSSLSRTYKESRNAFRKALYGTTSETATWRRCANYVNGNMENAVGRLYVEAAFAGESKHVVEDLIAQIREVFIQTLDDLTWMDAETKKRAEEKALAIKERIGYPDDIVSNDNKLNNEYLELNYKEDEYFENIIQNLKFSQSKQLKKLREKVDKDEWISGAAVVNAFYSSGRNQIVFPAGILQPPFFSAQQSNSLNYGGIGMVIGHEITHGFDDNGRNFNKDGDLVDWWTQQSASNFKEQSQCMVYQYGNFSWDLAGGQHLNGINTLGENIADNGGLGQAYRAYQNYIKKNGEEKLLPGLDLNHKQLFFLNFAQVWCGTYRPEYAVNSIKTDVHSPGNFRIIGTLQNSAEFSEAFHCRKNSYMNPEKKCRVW
Experimental: Single concentration studies at 10 μM: Neprilysin inhibition assays were performed as described previously. The substrate Mca-[…](Dpn) and endopeptidase NEP were purchased from Enzo Life Sciences. […] Plate was mixed with a plate shaker at 1500 rpm for 30 seconds. The reaction was started with the addition of 6 μM of the FRET substrate and mixed for another 30 seconds at 1500 rpm. Mca fluorescence is quenched by Dpn until cleavage at Phe by NEP. The accumulation of the Mca was measured by exciting at 320 nm and reading the fluorescence at 405 nm on a Molecular Devices M5e plate reader for 40 minutes at room temperature. Percent inhibition is calculated in GraphPad Prism software using slopes in the linear range for each inhibitor at 10 μM.
Dose-Response Studies for NEP: Neprilysin inhibition assays were performed as described previously. The substrate Mca-[…](Dpn) and endopeptidase NEP were purchased from Enzo Life Sciences. Briefly, 0.5 nM NEP was incubated with 0.5 μL inhibitor. Compounds were tested at 3× dilutions from 100 μM final concentration in 50 mM HEPES pH 6.5 in 50 μL total volume in a black 384-well plate. Plate was mixed with a plate shaker at 1500 rpm for 30 seconds. The reaction was started with the addition of 6 μM of the FRET substrate and mixed for another 30 seconds at 1500 rpm. Mca fluorescence is quenched by Dpn until cleavage at Phe by NEP. The accumulation of the Mca was measured by exciting at 320 nm and reading the fluorescence at 405 nm on a Molecular Devices M5e plate reader for 40 minutes at room temperature. Steady state velocities were used to determine IC50 values by fitting the velocities vs. inhibitor concentration to the sigmoidal concentration-response curve (variable slope) using GraphPad Prism.

Aminopeptidase N (APN) = target: T2, Aminopeptidase N (APN) (Homo sapiens, UniProt P15144); assay: Aminopeptidase N enzyme assay (Ala-AMC substrate, fluorescence); format: biochemical
T2 construct: purchased R&D Systems
T2 sequence (P15144 whole entry): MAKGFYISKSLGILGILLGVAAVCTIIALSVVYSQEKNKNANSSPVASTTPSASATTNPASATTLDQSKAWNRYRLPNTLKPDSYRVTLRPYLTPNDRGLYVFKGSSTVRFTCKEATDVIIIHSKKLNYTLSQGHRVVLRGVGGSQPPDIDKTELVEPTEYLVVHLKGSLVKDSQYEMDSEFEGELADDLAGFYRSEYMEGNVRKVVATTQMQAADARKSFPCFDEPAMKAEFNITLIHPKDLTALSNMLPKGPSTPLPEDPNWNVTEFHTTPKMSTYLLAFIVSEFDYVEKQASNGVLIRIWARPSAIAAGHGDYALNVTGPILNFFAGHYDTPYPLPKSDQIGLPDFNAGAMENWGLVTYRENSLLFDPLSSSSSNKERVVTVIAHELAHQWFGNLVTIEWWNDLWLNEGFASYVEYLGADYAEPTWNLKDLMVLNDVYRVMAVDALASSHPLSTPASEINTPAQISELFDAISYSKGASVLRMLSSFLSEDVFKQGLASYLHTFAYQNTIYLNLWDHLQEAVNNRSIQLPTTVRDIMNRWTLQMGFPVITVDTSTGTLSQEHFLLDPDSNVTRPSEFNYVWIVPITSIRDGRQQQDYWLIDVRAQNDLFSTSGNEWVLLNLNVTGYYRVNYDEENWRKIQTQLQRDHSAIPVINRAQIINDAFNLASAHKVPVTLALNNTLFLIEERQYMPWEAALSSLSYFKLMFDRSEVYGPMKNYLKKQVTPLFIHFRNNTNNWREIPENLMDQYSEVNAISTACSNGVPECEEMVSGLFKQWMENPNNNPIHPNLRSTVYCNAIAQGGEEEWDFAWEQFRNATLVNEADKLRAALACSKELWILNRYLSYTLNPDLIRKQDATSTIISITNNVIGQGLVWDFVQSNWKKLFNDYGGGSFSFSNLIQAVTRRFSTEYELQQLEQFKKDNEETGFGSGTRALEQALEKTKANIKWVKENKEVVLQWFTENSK
Experimental: Single concentration studies at 10 μM: Aminopeptidase N assays were performed as described previously. Aminopeptidase N was purchased from R&D Systems. Amino-4-methylcoumarin (Ala-AMC) was purchased from Bachem. Briefly, 0.1 μg/μL APN was incubated with 1 μL of 1 mM inhibitor in 50 mM Tris buffer, pH 7.5, in 100 μL volume in a black 384-well plate in duplicate. The reaction was started with the addition of Ala-AMC substrate at a final concentration of 100 μM. The cleavage accumulation AMC was measured by exciting at 380 nm and reading the fluorescence at 460 nm on a Molecular Devices SpectraMax i3 plate reader for 20 min at room temperature. Percent inhibition is calculated in GraphPad Prism software using slopes in the linear range for each inhibitor at 10 μM.
Dose-Response Studies for APN: Aminopeptidase N enzyme assays were performed as described previously.^26 Briefly, 0.1 μg/μL APN was incubated with 1 μL inhibitor in 50 mM Tris buffer, pH 7.5, in 50 μL volume in a black 384-well plate in duplicate. Compounds were tested at 3× dilutions from 100 μM final concentration. The reaction was started with the addition of Ala-AMC substrate at a final concentration of 100 μM. The accumulation of AMC was measured by exciting at 380 nm and reading the fluorescence at 460 nm on a Molecular Devices SpectraMax i3 plate reader for 30 min at room temperature. Steady state velocities were used to determine IC50 values by fitting the velocities vs. inhibitor concentration to the sigmoidal concentration-response curve (variable slope) using GraphPad Prism.

[1] = dose response, 3x dilutions from 100 μM

CC(C)C[C@@H](C(=O)N[C@H](C(=O)OC1CCCC1)c1ccccc1)[C@H](O)C(=O)NO [Tosedostat]
phase-I response (mice; i.p.): dose-dependent response
phase-II nociceptive action of formalin (mice; i.p., dosages as low as 1 mg/Kg): completely suppressed
potency in comparison with APAP (mice; same assay): significantly advantageous in potency
IC50 (Neprilysin (NEP); [1]): 900 nM and 890 nM
inhibition at 10 µM (Neprilysin (NEP); inhibitor 10 μM, read-out: NEP @ 10 μM (percent inhibition)): 79%
activity against APN (in words) (Aminopeptidase N (APN)): micromolar activity against APN
IC50 (Aminopeptidase N (APN); [1]): 930 nM and 933 nM
inhibition at 10 µM (Aminopeptidase N (APN); inhibitor 10 μM, read-out: APN @ 10 μM (percent inhibition)): 83%
